13 compounds from US7049312B1, “Benzothiazinone and benzoxazinone compounds” (Abbott GmbH & Co. KG, priority 1999, dated 2006) can be followed below.

For orientation: melting point means the temperature, or range, at which the solid turns liquid.

The structures appear in SMILES notation.

As for `O=C1Nc2ncccc2OC1=Cc1ccccc1` [Example 297, 2-(Phenylmethylene)-2H-pyrido[3,2-b][1,4]oxazin-3(4H)-one], the melting point lay within 223 to 225 °C.

`S=C1Nc2ccccc2SC1=Cc1c[nH]c2ncccc12` [Example 269, 2-[(7-azaindol-3-yl)methylene]-2H-1,4-benzothiazine-3(4H)-thione] gave a melting point of 287 to 290 °C.

As to `S=C1Nc2ccccc2SC1=Cc1ccc[nH]1` [Example 270, 2-[(pyrrol-2-yl)methylene]-2H-1,4-benzothiazine-3(4H)-thione], the melting point lay in the range of 205 to 206 °C.

`COc1ccc(NC=C2C(=O)Nc3ccccc3S2(=O)=O)cc1` [Example 285, 1,1 Dioxo-2-[(4-methoxyphenylamino)methylene]-2H-1,4-benzothiazin-3(4H)-one] had a melting point of 250 to 251 °C.

In turn, `ON=C1Nc2ccccc2OC1=Cc1ccc[nH]1` [Example 278, 3-Hydroxyimino-2-[(pyrrol-2-yl)methylene]-2H-1,4-benzoxazine] came in with a melting point of 192 to 194 °C.

Compound `O=C(ON=C1Nc2ccccc2SC1=Cc1ccc[nH]1)c1ccccc1` [Example 277, 3-Benzoyloxyimino-2-[(pyrrol-2-yl)methylene]-2H-1,4-benzothiazine] yielded a melting point of 188 to 189 °C.

`ON=C1Nc2ccccc2SC1=Cc1ccc[nH]1` [Example 273, 3-Hydroxyimino-2-[(pyrrol-2-yl)methylene]-2H-1,4-benzothiazine] displayed a melting point of 204 to 205 °C.

`S=C1Nc2ccccc2OC1=Cc1ccc[nH]1` [Example 271, 2-[(Pyrrol-2-yl)methylene]-2H-1,4-benzoxazin-3 (4H)-thione]: the melting point is 241 to 243 °C.

`O=C1Nc2ccccc2S(=O)(=O)C1=Cc1c[nH]c2ccccc12` [Example 280, 1,1-Dioxo-2-[(indol-3-yl)methylene]-2H-1,4-benzothiazin-3(4H)-one] returned a melting point of 318 to 320 °C.

For `S=C1Nc2ccccc2SC1=Cc1c[nH]c2ccccc12` [Example 268, 2-[(Indol-3-yl)methylene]-2H-1,4-benzothiazine-3(4H)-thione], the melting point fell in the range of 253 to 256 °C.

`S=C1Nc2ccccc2OC1=Cc1c[nH]c2ccccc12` [Example 272, 2-[(indol-3-yl)methylene]-2H-1,4-benzoxazin-3(4H)-thione] showed a melting point of 275 to 277 °C.

Compound `CC(=O)OCCCCn1cc(C=C2Sc3ccccc3NC2=O)c2cccnc21` [Example 131, 2-{[1-(4-Acetoxybutyl)-7-azaindol-3-yl]methylene}-2H-1,4-benzothiazine-3(4H)-one] gave a melting point of 158 to 160 °C.

`CC(=O)ON=C1Nc2ccccc2SC1=Cc1ccc[nH]1` [Example 276, 3-Acetyloxyimino-2-[(pyrrol-2-yl)methylene]-2H-1,4-benzothiazine] displayed a melting point of 182 to 185 °C.
